# Measurements published in PubChem BioAssay (NCI).
#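 These data come from cells grown in 96-well plates and exposed to compound for 48 hours at five concentrations. Definition used: TGI = concentration required for complete inhibition of growth.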
# What was measured:
# Test in all cases: DTP human tumour cell line panel, 48 h
# COLO 205 colon = test system: COLO 205 colon
# DU-145 prostate = test system: DU-145 prostate
# HCT-15 colon = test system: HCT-15 colon
# HS 578T breast = test system: HS 578T breast
# HT29 colon = test system: HT29 colon
# LOX IMVI melanoma = test system: LOX IMVI melanoma
# MCF7 breast = test system: MCF7 breast
# MDA-N = test system: MDA-N
# MOLT-4 leukemia = test system: MOLT-4 leukemia
# OVCAR-5 ovarian = test system: OVCAR-5 ovarian
# PC-3 prostate = test system: PC-3 prostate
# SF-295 CNS = test system: SF-295 CNS
# SK-MEL-28 melanoma = test system: SK-MEL-28 melanoma
# SK-MEL-5 melanoma = test system: SK-MEL-5 melanoma
# SNB-75 CNS = test system: SNB-75 CNS
# SR leukemia = test system: SR leukemia
# U251 CNS = test system: U251 CNS
# UACC-257 melanoma = test system: UACC-257 melanoma
# UO-31 renal = test system: UO-31 renal
Structure (SMILES),TGI (COLO 205 colon) [µM],TGI (DU-145 prostate) [µM],TGI (HCT-15 colon) [µM],TGI (HS 578T breast) [µM],TGI (HT29 colon) [µM],TGI (LOX IMVI melanoma) [µM],TGI (MCF7 breast) [µM],TGI (MDA-N) [µM],TGI (MOLT-4 leukemia) [µM],TGI (OVCAR-5 ovarian) [µM],TGI (PC-3 prostate) [µM],TGI (SF-295 CNS) [µM],TGI (SK-MEL-28 melanoma) [µM],TGI (SK-MEL-5 melanoma) [µM],TGI (SNB-75 CNS) [µM],TGI (SR leukemia) [µM],TGI (U251 CNS) [µM],TGI (UACC-257 melanoma) [µM],TGI (UO-31 renal) [µM]
COc1cc(S(=O)(=O)Nc2nc(-c3ccc(N)cc3)cs2)ccc1Cl,> 100,> 100,> 100,> 100,> 100,> 100,> 100,> 100,> 100,> 100,> 100,> 100,> 100,> 100,> 100,> 100,> 100,> 100,> 100
CC1(c2nc3ccccc3[nH]2)CCC(C(N)=O)C(C)(C)O1 (stereo unspecified),> 100,> 100,> 100,> 100,> 100,> 100,> 100,> 100,> 100,> 100,> 100,> 100,> 100,> 100,> 100,> 100,> 100,> 100,> 100
Cc1c2cccc-2ccc2c1[nH]c1ccc(Br)cc12,4.33,22.9,14,94.3,27.9,15,19.8,18.8,,16.7,14.2,15.7,24,13.4,7.89,> 100,12.1,> 100,18.6
